Active and inactive are the calls of the source. The calls are words filed in the database; no cut-off is given here.
Experiments:
[1] = molecular target: T1, Muscarinic acetylcholine receptor M2 (Rattus norvegicus, UniProt P10980); experiment: Binding affinity towards Muscarinic acetylcholine receptor M2
T1 sequence (P10980 whole entry): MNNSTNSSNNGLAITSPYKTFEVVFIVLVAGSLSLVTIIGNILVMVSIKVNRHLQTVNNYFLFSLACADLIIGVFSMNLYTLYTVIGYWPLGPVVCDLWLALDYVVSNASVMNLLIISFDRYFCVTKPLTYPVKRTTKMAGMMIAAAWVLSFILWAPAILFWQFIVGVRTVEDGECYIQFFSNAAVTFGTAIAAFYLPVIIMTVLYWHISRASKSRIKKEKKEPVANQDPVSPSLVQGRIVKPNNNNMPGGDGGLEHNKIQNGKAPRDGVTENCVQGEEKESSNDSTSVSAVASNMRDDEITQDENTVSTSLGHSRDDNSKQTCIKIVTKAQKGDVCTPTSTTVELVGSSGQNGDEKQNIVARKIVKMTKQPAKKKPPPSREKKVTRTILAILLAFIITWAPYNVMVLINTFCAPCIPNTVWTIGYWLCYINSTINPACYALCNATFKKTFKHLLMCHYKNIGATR

[2] = molecular target: Muscarinic receptor M2 and M3 (Rattus norvegicus) (UniProt P08483+P10980); experiment: Ratio of binding affinity for muscarinic M3 receptor to muscarinic M2 receptor; type: protein assay
Chain of Muscarinic receptor M2 and M3 (Rattus norvegicus) (P08483 whole entry, looked up, one chain of several): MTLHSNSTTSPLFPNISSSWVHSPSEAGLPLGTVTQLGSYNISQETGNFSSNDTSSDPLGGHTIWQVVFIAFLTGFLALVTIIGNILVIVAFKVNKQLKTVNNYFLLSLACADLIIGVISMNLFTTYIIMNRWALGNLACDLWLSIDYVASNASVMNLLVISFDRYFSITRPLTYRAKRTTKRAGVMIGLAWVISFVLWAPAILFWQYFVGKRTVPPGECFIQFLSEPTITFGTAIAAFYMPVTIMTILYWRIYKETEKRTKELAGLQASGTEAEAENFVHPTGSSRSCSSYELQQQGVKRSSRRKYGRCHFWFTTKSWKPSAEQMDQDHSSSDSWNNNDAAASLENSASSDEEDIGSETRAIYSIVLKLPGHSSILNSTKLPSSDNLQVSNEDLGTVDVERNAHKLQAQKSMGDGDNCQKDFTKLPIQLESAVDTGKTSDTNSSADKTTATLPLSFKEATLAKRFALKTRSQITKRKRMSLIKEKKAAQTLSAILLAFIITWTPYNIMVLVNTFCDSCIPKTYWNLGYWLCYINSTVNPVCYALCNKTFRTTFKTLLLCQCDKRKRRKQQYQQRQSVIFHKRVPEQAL

[3] = molecular target: Muscarinic receptor M1 and M2 (Rattus norvegicus) (UniProt P08482+P10980); experiment: Ratio of binding affinity of muscarinic M1 receptor to muscarinic M2 receptor; type: protein assay
Chain of Muscarinic receptor M1 and M2 (Rattus norvegicus) (P08482 whole entry, looked up, one chain of several): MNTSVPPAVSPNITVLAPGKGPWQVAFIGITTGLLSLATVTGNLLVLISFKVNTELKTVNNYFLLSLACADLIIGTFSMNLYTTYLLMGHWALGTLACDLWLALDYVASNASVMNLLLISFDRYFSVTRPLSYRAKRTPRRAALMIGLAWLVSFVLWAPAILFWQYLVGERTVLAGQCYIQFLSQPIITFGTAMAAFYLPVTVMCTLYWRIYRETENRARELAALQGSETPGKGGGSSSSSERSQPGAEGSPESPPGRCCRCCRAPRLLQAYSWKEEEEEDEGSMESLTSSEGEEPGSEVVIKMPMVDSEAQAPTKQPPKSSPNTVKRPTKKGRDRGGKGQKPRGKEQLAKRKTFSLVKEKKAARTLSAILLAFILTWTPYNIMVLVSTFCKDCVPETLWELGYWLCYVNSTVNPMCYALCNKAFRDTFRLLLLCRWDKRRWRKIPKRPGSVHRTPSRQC

Rattus norvegicus [4] = species: Rattus norvegicus; experiment: Efficacy was tested in a rat microdialysis assay where ACh release levels were measured; type: functional
Rattus norvegicus [5] = experiment: Effect of compound on heart rate in rats at 1 mg/kg was determined; Not effected; type: functional, organism-based; set-up: dose 1 mg/kg
Rattus norvegicus [6] = experiment: Compound was tested for activity in rat passive avoidance response (PAR) experiment, pretreatment time 1 hr with oral dose ranging from 0.001 to 0.1 mg/kg; Active; type: functional, organism-based
[7] = Oral bioavailability in rats was determined; High; type: ADME, organism-based; details: rat, in vivo
Rattus norvegicus [8] = experiment: Effect of compound on heart rate in rats at 3 and 10 mg/kg was determined; Increase; type: functional, organism-based; set-up: dose 10 mg/kg
[9] = Area under curve was determined
[10] = Oral bioavailability in cynomolgus monkeys was determined; Acceptable; type: ADME, organism-based, Macaca fascicularis; details: cynomolgus monkey, in vivo

SMILES | Ki [1] [nM] | Ratio [3] | other results
COc1ccc(S(=O)(=O)c2ccc(C3(C4CCN(C5CCN(C(=O)c6ccccc6OC)CC5)CC4)OCCO3)cc2)cc1 | 1.2 |  | 
COc1ccc(S(=O)(=O)c2ccc(C3(C4CCN(C5CCN(C(=O)c6cccc(C)c6C)CC5)CC4)OCCO3)cc2)cc1 | 1.4 | 66 | Ratio [2]: 40
COc1ccc(S(=O)(=O)c2ccc(C3(C4CCN(C5CCN(C(=O)c6ccccc6C)CC5)CC4)OCCO3)cc2)cc1 | 0.54 |  | 
COc1ccc(S(=O)(=O)c2ccc(C3(C4CCN(C5CCN(C(=O)c6cccc(Cl)c6N)CC5)CC4)OCCO3)cc2)cc1 | 1.1 |  | 
COc1ccc(S(=O)(=O)c2ccc(C3(C4CCN(C5CCN(C(=O)c6ccccc6Br)CC5)CC4)OCCO3)cc2)cc1 | 1.8 |  | 
COc1ccc(S(=O)(=O)c2ccc(C3(C4CCN(C5CCN(C(=O)c6cccc(N)c6Cl)CC5)CC4)OCCO3)cc2)cc1 | 0.53 |  | Acetylcholine release (Rattus norvegicus [4]): 135%
COc1ccc(S(=O)(=O)c2ccc(C3(C4CCN(C5CCN(C(=O)c6ccccc6F)CC5)CC4)OCCO3)cc2)cc1 | 4.8 | 49 | Ratio [2]: 8
COc1ccc(S(=O)(=O)c2ccc(C3(C4CCN(C5CCN(C(=O)c6ccc(F)cc6N)CC5)CC4)OCCO3)cc2)cc1 | 0.44 |  | 
COc1ccc(S(=O)(=O)c2ccc(C3(C4CCN(C5CCN(C(=O)c6cccc(N)c6)CC5)CC4)OCCO3)cc2)cc1 | 0.78 |  | 
COc1ccc(S(=O)(=O)c2ccc(C3(C4CCN(C5CCN(C(=O)c6cccc(Cl)c6C)CC5)CC4)OCCO3)cc2)cc1 | 0.72 | 42 | 
COc1ccc(S(=O)(=O)c2ccc(C3(C4CCN(C5CCN(C(=O)c6ccccc6N)CC5)CC4)OCCO3)cc2)cc1 | 1.5 |  | 
COc1ccc(S(=O)(=O)c2ccc(C3(C4CCN(C5CCN(C(=O)c6cccc(N)c6C)CC5)CC4)OCCO3)cc2)cc1 | 0.4 |  | 
COc1ccc(S(=O)(=O)c2ccc(C3(C4CCN(C5CCN(C(=O)c6ccc(F)c7ccccc67)CC5)CC4)OCCO3)cc2)cc1 |  |  | Acetylcholine release (Rattus norvegicus [4]): 180%
COc1ccc([S+]([O-])c2ccc(C3(C4CCN(C5CCN(C(=O)c6ccccc6C)CC5)CC4)O[C@H](C)[C@@H](C)O3)cc2)cc1 (some centres not stated) | 51 | 14 | 
COc1ccc([S+]([O-])c2ccc(C3(C4CCN(C5CCN(C(=O)c6ccccc6C)CC5)CC4)OCCO3)cc2)cc1 (configuration not stated) | 2.5 | 146 | Ratio [2]: 35
COc1ccc(S(=O)(=O)c2ccc(C3(C4CCN(C5CCN(C(=O)c6ccccc6C)CC5)CC4)SCCS3)cc2)cc1 | 0.86 | 89 | Ratio [2]: 15
COc1ccc(S(=O)(=O)c2ccc(C3(C4CCN(C5CCN(C(=O)c6ccccc6Cl)CC5)CC4)OCCO3)cc2)cc1 | 1.6 |  | 
COc1ccc(S(=O)(=O)c2ccc(C3(C4CCN(C5CCN(C(=O)c6cccc(C)c6N)CC5)CC4)OCCO3)cc2)cc1 | 0.39 |  | Heart rate (Rattus norvegicus [5]): inactive; Activity (Rattus norvegicus [6]): Active; bioavailability [7]: 80%; Acetylcholine release (Rattus norvegicus [4]): 194%; Heart rate (Rattus norvegicus [8]): Increased heart rate; AUC [9]: 1.57 µg·h/mL; bioavailability [10]: 15%
COc1ccc(S(=O)(=O)c2ccc(C3(C4CCN(C5CCN(C(=O)c6cc(N)ccc6Cl)CC5)CC4)OCCO3)cc2)cc1 | 0.53 |  | 
COc1ccc(S(=O)(=O)c2ccc(C3(C4CCN(C5CCN(C(=O)c6cc(F)ccc6N)CC5)CC4)OCCO3)cc2)cc1 | 0.68 |  | 
COc1ccc(S(=O)(=O)c2ccc(C3(C4CCN(C5CCN(C(=O)c6ccccc6C(F)(F)F)CC5)CC4)OCCO3)cc2)cc1 | 1 |  | 
COc1ccc(S(=O)(=O)c2ccc(C3(C4CCN(C5CCN(C(=O)c6cccc(F)c6N)CC5)CC4)OCCO3)cc2)cc1 | 0.51 |  | 
CNc1ccccc1C(=O)N1CCC(N2CCC(C3(c4ccc(S(=O)(=O)c5ccc(OC)cc5)cc4)OCCO3)CC2)CC1 | 0.9 |  | 
COc1ccc(S(=O)(=O)c2ccc(C3(C4CCN(C5CCN(C(=O)c6c(Cl)cccc6Cl)CC5)CC4)OCCO3)cc2)cc1 | 2.3 |  | 
Cc1ccccc1C(=O)N1CCC(N2CCC(C3(c4ccc(S(=O)(=O)c5ccc6c(c5)OCO6)cc4)OCCO3)CC2)CC1 | 0.065 | 28 | Ratio [2]: 8
COc1ccc(S(=O)(=O)c2ccc(C3(C4CCN(C5CCN(C(=O)c6ccccc6C)CC5)CC4)O[C@H](C)[C@@H](C)O3)cc2)cc1 | 18 | 32 | 
